Results on 7 compounds are retold here after patent publication US20200113181A1, “HERBICIDAL COMPOUNDS” (SYNGENTA PARTICIPATIONS AG, priority 2016, published 2020).

Holding throughout (type): in vivo
For assay [1], the system named is Echinochloa crus-galli (ECHCG). The assay can be described thus: Glasshouse herbicide test, pre- and post-emergence, Echinochloa crus-galli. The note with it: 250 g/h, evaluated after 13 days; for ECHCG POST, percentage damage caused to the plant (five point scale): post-emergence; for ECHCG PRE, percentage damage caused to the plant (five point scale): pre-emergence. In short, it runs like this: (§1)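 Potted plants in standard soil; pre-emergence spray after 1 d of cultivation, post-emergence after 8 d. Dose 250 g/h from an acetone/water (50:50), 0.5% Tween 20 formulation. % damage at 13 d, scored 1–5.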

In assay [2] the test system is Setaria faberi (SETFA). As to the kind of experiment: Glasshouse herbicide test, pre- and post-emergence, Setaria faberi. The note with it: 250 g/h, evaluated after 13 days; for SETFA POST, percentage damage caused to the plant (five point scale): post-emergence; for SETFA PRE, percentage damage caused to the plant (five point scale): pre-emergence. In short, it runs like this:
as §1

Assay [3] has as its system Avena fatua (AVEFA). The assay can be described thus: Glasshouse herbicide test, pre- and post-emergence, Avena fatua. The note with it: 250 g/h, evaluated after 13 days; for AVEFA POST, percentage damage caused to the plant (five point scale): post-emergence; for AVEFA PRE, percentage damage caused to the plant (five point scale): pre-emergence. In short, it runs like this: as §1

The test system of assay [4] is Lolium perenne (LOLPE). The assay can be described thus: Glasshouse herbicide test, pre- and post-emergence, Lolium perenne. To be noted: 250 g/h, evaluated after 13 days; for LOLPE POST, percentage damage caused to the plant (five point scale): post-emergence; for LOLPE PRE, percentage damage caused to the plant (five point scale): pre-emergence. In short, it runs like this:
as §1

The test system of assay [5] is Alopecurus myosuroides (ALOMY). As to the kind of experiment: Glasshouse herbicide test, pre- and post-emergence, Alopecurus myosuroides. To be noted: 250 g/h, evaluated after 13 days; for ALOMY POST, percentage damage caused to the plant (five point scale): post-emergence; for ALOMY PRE, percentage damage caused to the plant (five point scale): pre-emergence. In short, it runs like this:
as §1

Molecules are shown by their SMILES.

With `CC#Cc1ccc(C2C(=O)[C@H]3[C@@H]4C=C[C@@](C)(O4)[C@H]3C2=O)c(OC)c1` (mixture of isomers) [Compound 1.6], in assay [1], the “ECHCG POST, percentage damage caused to the plant (five point scale)” value (“ECHCG POST, percentage damage caused” for short) is given as 5 (5=80-100%) and the “ECHCG PRE, percentage damage caused to the plant (five point scale)” value (“ECHCG PRE, percentage damage caused” for short) is given as 5 (5=80-100%). For the same compound, in assay [2], the “SETFA POST, percentage damage caused to the plant (five point scale)” value (“SETFA POST, percentage damage caused” below) was 5 (5=80-100%) and the “SETFA PRE, percentage damage caused to the plant (five point scale)” value (“SETFA PRE, percentage damage caused” for short) is 5 (5=80-100%). Besides, in assay [3], the “AVEFA POST, percentage damage caused to the plant (five point scale)” value (“AVEFA POST, percentage damage caused” below) is recorded as 5 (5=80-100%) and the “AVEFA PRE, percentage damage caused to the plant (five point scale)” value (“AVEFA PRE, percentage damage caused” below) is recorded as 3 (3=40-59%). Further, in assay [4], the “LOLPE POST, percentage damage caused to the plant (five point scale)” value (shortened to “LOLPE POST, percentage damage caused”) is 5 (5=80-100%) and the “LOLPE PRE, percentage damage caused to the plant (five point scale)” value (from here on “LOLPE PRE, percentage damage caused”) is 5 (5=80-100%). In addition, in assay [5], the “ALOMY POST, percentage damage caused to the plant (five point scale)” value (“ALOMY POST, percentage damage caused” below) was 2 (2=20-39%) and the “ALOMY PRE, percentage damage caused to the plant (five point scale)” value (“ALOMY PRE, percentage damage caused” below) is 5 (5=80-100%).

`CC#Cc1ccc(C2C(=O)[C@@H]3[C@@H]4O[C@@H](C[C@@H]4COC)[C@@H]3C2=O)c(OC)c1` (stereo in doubt) [Compound 1.19, 8-methoxymethyl-4-[2-methoxy-4-(prop-1-yn-1-yl)phenyl]-10-oxatricyclo[5.2.1.0^2,6]decane-3,5-dione]: in assay [1], the “ECHCG POST, percentage damage caused” value is on record as 5 (5=80-100%) and the “ECHCG PRE, percentage damage caused” value is listed as 5 (5=80-100%). Further, in assay [2], the “SETFA POST, percentage damage caused” value is 5 (5=80-100%) and the “SETFA PRE, percentage damage caused” value is on record as 5 (5=80-100%). In assay [3], the “AVEFA POST, percentage damage caused” value is on record as 5 (5=80-100%) and the “AVEFA PRE, percentage damage caused” value is 5 (5=80-100%). Also, in assay [4], the “LOLPE POST, percentage damage caused” value is listed as 5 (5=80-100%) and the “LOLPE PRE, percentage damage caused” value was 5 (5=80-100%). For the same compound, in assay [5], the “ALOMY POST, percentage damage caused” value is 5 (5=80-100%) and the “ALOMY PRE, percentage damage caused” value was 5 (5=80-100%).

Turning to `CC#Cc1ccc(C2C(=O)[C@@H]3[C@H](C2=O)[C@H]2CC[C@@H]3O2)c(OCC)c1` (mixture of isomers) [Compound 1.30], in assay [1], the “ECHCG POST, percentage damage caused” value is listed as 5 (5=80-100%) and the “ECHCG PRE, percentage damage caused” value is 5 (5=80-100%). In assay [2], the “SETFA PRE, percentage damage caused” value was 5 (5=80-100%). In assay [3], the “AVEFA POST, percentage damage caused” value was 5 (5=80-100%) and the “AVEFA PRE, percentage damage caused” value is 5 (5=80-100%). For the same compound, in assay [4], the “LOLPE POST, percentage damage caused” value was 5 (5=80-100%) and the “LOLPE PRE, percentage damage caused” value is 5 (5=80-100%). For the same compound, in assay [5], the “ALOMY POST, percentage damage caused” value is reported as 5 (5=80-100%) and the “ALOMY PRE, percentage damage caused” value is on record as 5 (5=80-100%).

As to `CC#Cc1ccc(C2C(=O)[C@@H]3[C@H](C2=O)[C@@]2(C)CC[C@]3(C)O2)c(OC)c1` (stereo partly drawn) [Compound 1.11], in assay [1], the “ECHCG POST, percentage damage caused” value was 5 (5=80-100%) and the “ECHCG PRE, percentage damage caused” value is reported as 3 (3=40-59%). Besides, in assay [2], the “SETFA POST, percentage damage caused” value was 5 (5=80-100%) and the “SETFA PRE, percentage damage caused” value is listed as 3 (3=40-59%). Further, in assay [3], the “AVEFA POST, percentage damage caused” value is given as 5 (5=80-100%) and the “AVEFA PRE, percentage damage caused” value is reported as 3 (3=40-59%). Further, in assay [4], the “LOLPE POST, percentage damage caused” value was 5 (5=80-100%) and the “LOLPE PRE, percentage damage caused” value is 4 (4=60-79%). Further, in assay [5], the “ALOMY POST, percentage damage caused” value is on record as 5 (5=80-100%) and the “ALOMY PRE, percentage damage caused” value was 5 (5=80-100%).

`CC#Cc1ccc(C2C(=O)[C@@H]3[C@@H]4O[C@@H](C[C@H]4/C=N/OC)[C@@H]3C2=O)c(OC)c1` (mixture of isomers) [Compound 1.17]: in assay [1], the “ECHCG POST, percentage damage caused” value is recorded as 5 (5=80-100%) and the “ECHCG PRE, percentage damage caused” value is 5 (5=80-100%). For the same compound, in assay [2], the “SETFA POST, percentage damage caused” value is reported as 5 (5=80-100%) and the “SETFA PRE, percentage damage caused” value is listed as 5 (5=80-100%). Besides, in assay [3], the “AVEFA POST, percentage damage caused” value is listed as 5 (5=80-100%) and the “AVEFA PRE, percentage damage caused” value is listed as 5 (5=80-100%). In addition, in assay [4], the “LOLPE POST, percentage damage caused” value is reported as 5 (5=80-100%) and the “LOLPE PRE, percentage damage caused” value is given as 5 (5=80-100%). In addition, in assay [5], the “ALOMY POST, percentage damage caused” value is given as 5 (5=80-100%) and the “ALOMY PRE, percentage damage caused” value is 5 (5=80-100%).

For the compound `CC#Cc1ccc(C2=C(OC(=O)OC)[C@@H]3[C@H](C2=O)[C@@H]2O[C@H]3C[C@@H]2COC)c(OC)c1` (racemic) [Compound 1.28], in assay [1], the “ECHCG POST, percentage damage caused” value is given as 5 (5=80-100%) and the “ECHCG PRE, percentage damage caused” value is listed as 5 (5=80-100%). In assay [2], the “SETFA POST, percentage damage caused” value is recorded as 5 (5=80-100%) and the “SETFA PRE, percentage damage caused” value is on record as 5 (5=80-100%). Moreover, in assay [3], the “AVEFA POST, percentage damage caused” value was 5 (5=80-100%) and the “AVEFA PRE, percentage damage caused” value is 5 (5=80-100%). Besides, in assay [4], the “LOLPE POST, percentage damage caused” value is 5 (5=80-100%) and the “LOLPE PRE, percentage damage caused” value is recorded as 5 (5=80-100%). Moreover, in assay [5], the “ALOMY POST, percentage damage caused” value is on record as 5 (5=80-100%) and the “ALOMY PRE, percentage damage caused” value is 5 (5=80-100%).

With `CC#Cc1ccc(C2C(=O)[C@H]3[C@@H]4CC[C@@](C)(O4)[C@H]3C2=O)c(OC)c1` (stereo partly drawn) [Compound 1.21], in assay [1], the “ECHCG POST, percentage damage caused” value is on record as 5 (5=80-100%) and the “ECHCG PRE, percentage damage caused” value is 3 (3=40-59%). Also, in assay [2], the “SETFA POST, percentage damage caused” value was 5 (5=80-100%) and the “SETFA PRE, percentage damage caused” value was 4 (4=60-79%). In assay [3], the “AVEFA POST, percentage damage caused” value was 5 (5=80-100%) and the “AVEFA PRE, percentage damage caused” value is 4 (4=60-79%). In addition, in assay [4], the “LOLPE POST, percentage damage caused” value is listed as 4 (4=60-79%) and the “LOLPE PRE, percentage damage caused” value is given as 4 (4=60-79%). Moreover, in assay [5], the “ALOMY POST, percentage damage caused” value is 4 (4=60-79%) and the “ALOMY PRE, percentage damage caused” value is recorded as 4 (4=60-79%).
